PubChem BioAssay (NCI)
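Where inhibition never reached the appropriate level, the endpoint shown equals the highest concentration tested. Otherwise, values were interpolated linearly from a five-concentration, 48-hour dose response in 96-well plates. Here, GI50 denotes the concentration required for 50% inhibition of growth. The concentration for full growth arrest is given as TGI.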

How the values were obtained:
Assay in all cases: NCI tumour cell line growth inhibition, 48 h
MCF7 breast = system: MCF7 breast
U251 CNS = system: U251 CNS
HOP-62 NSCLC = system: HOP-62 NSCLC
HCT-116 colon = system: HCT-116 colon
OVCAR-4 ovarian = system: OVCAR-4 ovarian
SNB-75 CNS = system: SNB-75 CNS
HS 578T breast = system: HS 578T breast
UACC-257 melanoma = system: UACC-257 melanoma
LOX IMVI melanoma = system: LOX IMVI melanoma
SF-539 CNS = system: SF-539 CNS

SMILES	GI50 (MCF7 breast)	TGI (MCF7 breast)	GI50 (U251 CNS)	TGI (U251 CNS)	GI50 (HOP-62 NSCLC)	TGI (HOP-62 NSCLC)	GI50 (HCT-116 colon)	TGI (HCT-116 colon)	GI50 (OVCAR-4 ovarian)	TGI (OVCAR-4 ovarian)	GI50 (SNB-75 CNS)	TGI (SNB-75 CNS)	GI50 (HS 578T breast)	TGI (HS 578T breast)	GI50 (UACC-257 melanoma)	TGI (UACC-257 melanoma)	GI50 (LOX IMVI melanoma)	TGI (LOX IMVI melanoma)	GI50 (SF-539 CNS)	TGI (SF-539 CNS)
Cc1cc(C)c(CNC(=O)c2cc(Cl)c3c(c2C)O[C@@](C)(C2CCC(N(C)C)CC2)O3)c(=O)[nH]1 (some centres not stated)	49.5 µM	> 100 µM	68 µM	> 100 µM	> 100 µM	> 100 µM	40.3 µM	> 100 µM	83.9 µM	> 100 µM	15.2 µM	> 100 µM	32.5 µM	> 100 µM	95.3 µM	> 100 µM	47.8 µM	> 100 µM	57.9 µM	> 100 µM
COc1ccc2c(c1)c(-c1nc(-c3cn(C)c4ncccc34)cs1)cn2CCCCN1CCCCC1									1.83 µM	3.39 µM	1.07 µM	2.28 µM								
CC(C)c1c(C(=O)Nc2ccccc2)c(-c2ccccc2)c(-c2ccc(F)cc2)n1CC[C@@H](O)C[C@@H](O)CC(=O)O	27.5 µM	> 100 µM	4.48 µM	> 100 µM	36 µM	> 100 µM	10.1 µM	> 100 µM	27.8 µM	> 100 µM	2.09 µM	> 26.5 µM	15.6 µM	> 100 µM	41.5 µM	> 100 µM	3.11 µM	22.9 µM	25.6 µM	> 100 µM
C=C(CN1CCc2ccccc2C1)c1ccc(C(=O)Nc2cccc(N)c2)cc1	17.5 µM	42.8 µM	22.3 µM	57.4 µM	25.6 µM	68.4 µM	16 µM	33.5 µM			15.6 µM	43 µM	24.7 µM	58.1 µM	14.8 µM	29.7 µM			17.4 µM	35.3 µM
CCOc1ccc(/C=C/C(=O)c2sc(NNC(C)=O)nc2C)cc1				> 100 µM		> 100 µM						> 100 µM				> 100 µM		> 100 µM		> 100 µM
Cc1cc2c(=O)cc(-c3ccncc3)oc2c(C(N)=O)c1C				> 100 µM		> 100 µM		> 100 µM				> 100 µM				> 100 µM		> 100 µM		> 100 µM
C=CN(C(=O)N1CCN(c2cc3c(cc2F)c(=O)c(C(=O)O)cn3C2CC2)CC1)c1nc(-c2ccc(C)cc2)cs1	2.88 µM	11.5 µM	3.39 µM	11.6 µM	3.49 µM	> 100 µM	0.319 µM	> 100 µM	3.56 µM	> 100 µM	2.13 µM	6.59 µM	3.45 µM	21.3 µM	2.81 µM	7.44 µM				
N#Cc1cccc(C2SCc3nc4ccccc4n32)c1 (configuration not stated)				> 100 µM		> 100 µM				> 100 µM						> 100 µM		> 100 µM		> 100 µM
CCn1nc(C#Cc2c(C)ccc3c(Nc4ccc(Cl)cc4)nccc23)c2c(N)ncnc21	2.49 µM	> 100 µM	4.43 µM	> 100 µM	4.01 µM	78 µM	2.11 µM	> 100 µM	6.16 µM	53.5 µM	3.12 µM	44 µM			3.54 µM	38.7 µM	1.81 µM	> 100 µM		
CCc1cccc(CC)c1NC1=CC(=O)C(=O)c2ccccc21				36.6 µM		40.3 µM		34.8 µM		27.8 µM		49.3 µM				28.6 µM		29.3 µM		35.4 µM
O=c1[nH]c(-c2ccncc2)nc2sc3c(c12)CCCCCC3	> 100 µM	> 100 µM	> 100 µM	> 100 µM	> 100 µM	> 100 µM					2.71 µM	> 100 µM	> 100 µM	> 100 µM	> 100 µM	> 100 µM	> 100 µM	> 100 µM	> 100 µM	> 100 µM
C#CC[C@]12CC(=O)CC[C@H]1CC1(C2)OCCO1				> 100 µM		> 100 µM		> 100 µM		> 100 µM		> 100 µM				> 100 µM				> 100 µM
CN(C)CCCn1c2c(c3ccc(N4CCNCC4)cc3c1=O)C(=O)c1ccccc1-2	0.296 µM	1.78 µM	0.639 µM	2.31 µM	1.06 µM	2.64 µM			0.343 µM	1.88 µM	0.947 µM	2.55 µM	1.44 µM	4.38 µM	1.69 µM	3.74 µM	0.145 µM	0.481 µM	1.61 µM	3.16 µM
Cc1nc2ccccc2c(=O)n1/N=C(\N=Nc1ccc(Cl)cc1)c1ccc(N(C)C)cc1						> 100 µM		> 100 µM										> 100 µM		> 100 µM
C/C=C/C(C/C=C(\C)CO[Si](C)(C)C(C)(C)C)O[Si](C)(C)C(C)(C)C (configuration not stated)		> 100 µM				> 100 µM		> 100 µM		> 100 µM		> 100 µM		> 100 µM		> 100 µM		> 100 µM		> 100 µM
CCC[CH2][Sn]1([CH2]CCC)[O]C(=O)c2cccnc2[S]1			1.21 µM	5.33 µM	28.9 µM	43.7 µM	5.56 µM	17.9 µM	10.1 µM	21.9 µM	2.54 µM	7.82 µM			2.64 µM	6.97 µM	1.76 µM	3.6 µM	3.17 µM	8.39 µM
O=c1c2cc(F)ccc2sc2c(NCCCNCCO)nc3ccc(F)cc3c12	1.62 µM	3.2 µM			1.61 µM	3.53 µM	1.84 µM	3.63 µM	2.03 µM	4.43 µM	1.51 µM	3.27 µM	1.79 µM	4.1 µM	1.98 µM	4.03 µM	1.57 µM	3.06 µM	1.68 µM	3.12 µM
